In patent US8426398B2 (Emory University, priority 2009, dated 2013):

Key:
[1] = tested on: FR-α overexpressing cancer cells (SK-OV3 human ovarian carcinoma cells, U87 glioblastoma cells); test: cell viability using Trypan blue (adherent live cells), 48 hours; type: cell-based
Method: Live cells remain adherent and exclude Trypan blue (although a few late stage dying cells that remain adherent are Trypan blue-positive, and are not counted as live adherent). The numbers of adherent live cells are quantified in panels B and D respectively.
An equal number of two types of cells, (SK-OV3 human ovarian carcinoma cells and U87 glioblastoma cells) were plated in 15 tissue culture dishes. Plates were divided into five groups of triplicates.
FIGS. 8A & B show phase images and quantification of cell viability using Trypan blue in SK-OV3 cells. FIGS. 8C & D show parallel data for human glioblastoma U87 cells. Data for two other FR-α cell lines are similar (not shown).

tubulin [2] = test: assembly of tubulin subunits into microtubules in vitro (light scattering); type: biochemical; conditions: for effect on tubulin polymerization: 25 μM
Method: (§1) FIG. 5 is a picture showing the fluorescence quenching of tubulin by Targetin. Panel A, quenching of tubulin fluorescence emission by Targetin in a concentration-dependent manner (▪) control, 10 μM (●), 20 μM (▴), 30 μM (▾), 50 μM ( ? ), 75 μM ( ? ) and 100 μM (♦) Panel B, double-reciprocal plot for Targetin binding to tubulin. […] Equivalent amount of solvent DMSO was used as a negative control.
(§2) However, at a four-fold concentration of Targetin (100 μM), it inhibited the rate and extent of tubulin polymerization by ˜17% (FIG. 5C).

[3] = tested on: porcine renal LLCPK-1 cells stably expressing GFP-tagged α-tubulin; test: microtubule dynamics in living cells (plus ends of GFP-tagged α-tubulin MTs); type: cell-based; conditions: for Rate, Growing: individual microtubules in interphase cells
Method: FIG. 6 is a series of photographs showing how Targetin increases the pause-time of cellular MTs. A gallery of video frames, 6 seconds apart, of plus ends of several microtubules in control and Targetin treated cells.
To determine if Targetin affects MT dynamics in living cells, the life history of the plus ends of Targetin-treated cellular MTs was evaluated, resolvable individually at the cell periphery of porcine renal LLCPK-1 cells stably expressing green fluorescent protein (GFP)-tagged α-tubulin. These cells were treated either with Targetin in DMSO or DMSO alone. […] As expected in control cells, MTs alternated between phases of growth and shortening interrupted occasionally by a state of attenuated dynamic activity (pause), determined by noting the position of the plus ends over time. The control panels show different positions of MT plus ends in a 24 second time period (arrows represent fixed pixel position for reference).

tubulin [4] = test: tubulin-fluorescence quenching titration; type: binding; conditions: 10-100 μM, compared with parent noscapine
Method: as §1, §2

[5] = tested on: variety of cancer cell types with varying degrees of folate receptor expression; test: sulforhodamine B cellular proliferation assay; type: cell-based; conditions: irrespective of folate receptor status
Method: Our next goal was to determine whether differences in folate receptor overexpression affected cytotoxicity in response to Targetin. To this end, the ability of Targetin to inhibit cellular proliferation of a variety of cancer cell types with varying degrees of folate receptor expression was evaluated using a sulforhodamine B assay to determine total protein content (FIG. 7).

folate receptor = target: T1, folate receptor (Homo sapiens, UniProt P15328); conditions: KB-31 cells, 3H-folic acid; cited from earlier work
T1 construct: determined in cultured KB-31 cells (nasopharyngeal epidermal carcinoma cell line) overexpressing the folate receptor using ^3H-folic acid; endogenous in cells; host or cells: KB-31 cells
T1 sequence (P15328 25-234): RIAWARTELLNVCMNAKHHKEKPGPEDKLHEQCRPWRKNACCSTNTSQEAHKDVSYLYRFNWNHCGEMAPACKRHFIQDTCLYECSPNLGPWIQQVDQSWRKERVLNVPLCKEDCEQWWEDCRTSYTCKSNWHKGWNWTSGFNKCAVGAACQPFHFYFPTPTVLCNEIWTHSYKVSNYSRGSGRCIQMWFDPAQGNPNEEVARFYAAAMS

[6] = tested on: cells expressing green fluorescent protein (GFP)-tagged α-tubulin; conditions: 30 second time period; cited from earlier work
tubulin [7] = conditions: cited from earlier work
[8] = oral 300 mg/kg body weight to 600 mg/kg; cited from earlier work
[9] = tested on: melanoma, glioblastoma, ovarian, breast carcinoma, and prostate cancer cells; conditions: many cancer cell types; cited from earlier work

In the case of Noscapine-folate [Targetin], the “effectiveness compared with noscapine (adherent live cells)” value ([1]; 10 μM Targetin vs 25 μM noscapine, FR-α overexpressing cell lines) is reported as “significantly more effective than noscapine”, the “effect of free folic acid on Targetin toxicity” value ([1]; 50 μM folic acid + 10 μM Targetin, FR-α overexpressing cancer cells) is reported as “free folic acid mitigates the Targetin toxicity” and the “effect on tubulin polymerization” value (tubulin [2]) is reported as “did not inhibit tubulin polymerization”. The “inhibition of the rate and extent of tubulin polymerization” value (tubulin [2]; 100 μM) was roughly 17%, the Average pause ([3]; Targetin 5 μM) was 10.25 ± 1.25 s and the Dynamicity ([3]; Targetin 5 μM) was 4.52 ± 1.21 μm/min. The “Percent of total time, Attenuation” value ([3]; Targetin 5 μM) was 32.5%, the “Percent of total time, Growing” value ([3]; Targetin 5 μM) was 35.2% and the “Percent of total time, Shortening” value ([3]; Targetin 5 μM) was 28.5%. For the same molecule, the “Rate, Shortening” value ([3]; Targetin 5 μM) was 11.78 ± 1.21 μm/min, the “Transition frequency, Catastrophe” value ([3]; Targetin 5 μM) was 0.079 ± 0.07 s⁻¹ and the “Transition frequency, Rescue” value ([3]; Targetin 5 μM) was 0.07 ± 0.012 s⁻¹. For the same molecule, the “Rate, Growing” value ([3]; Targetin 5 μM) was 8.72 ± 1.32 μm/min, the Average pause ([3]; Targetin 10 μM) was 14.52 ± 2.36 s and the Dynamicity ([3]; Targetin 10 μM) was 2.75 ± 1.05 μm/min. For the same molecule, the “Percent of total time, Attenuation” value ([3]; Targetin 10 μM) was 44.8%, the “Percent of total time, Growing” value ([3]; Targetin 10 μM) was 24.3% and the “Percent of total time, Shortening” value ([3]; Targetin 10 μM) was 20.1%. For the same molecule, the “Rate, Shortening” value ([3]; Targetin 10 μM) was 9.92 ± 1.25 μm/min, the “Transition frequency, Catastrophe” value ([3]; Targetin 10 μM) was 0.072 ± 0.05 s⁻¹ and the “Transition frequency, Rescue” value ([3]; Targetin 10 μM) was 0.059 ± 0.019 s⁻¹. For the same molecule, the “Rate, Growing” value ([3]; Targetin 10 μM) was 7.15 ± 0.56 μm/min, the “MT-binding and MT dynamics attenuating activity relative to noscapine” value ([3]; summary statement) was roughly 3 fold and the “tubulin binding activity (quenching of tubulin fluorescence)” value (tubulin [4]) was “does retain the tubulin binding activity”. The “potency in inhibiting cellular proliferation relative to noscapine” value [5] was “about 3 fold”.
In the case of Nc1nc(O)c2nc(CNc3ccc(C(=O)N[C@@H](CCC(=O)O)C(=O)O)cc3)cnc2n1 [folic acid], the “in vitro binding affinity” value (folate receptor) is listed as 41 nmol/L.
In the case of COc1ccc2c(c1OC)C(=O)O[C@@H]2[C@H]1c2c(cc3c(c2OC)OCO3)CCN1C [Noscapine], the “MT dynamics (position of plus ends)” value [6] is given as “suppressed MT dynamics”, the “apparent stoichiometry of binding to tubulin” value (tubulin [7]) is given as 0.95±0.02 noscapine molecule per tubulin dimer subunit and the “effect on tubulin polymerization” value (tubulin [2]) is given as “did not inhibit tubulin polymerization”. For the same molecule, the “drug bioavailability on doubling the oral dose” value [8] was “did not increase” and the “effect on cell cycle and cell death” value [9] was “brief mitotic pause followed by extensive apoptosis”.
